In test [1] the target is T1, Human immunodeficiency virus type 1 integrase (Human immunodeficiency virus 1, UniProt Q7ZJM1).
The target of test [2] is T1, Human immunodeficiency virus type 1 integrase. The source holds these as a separate data set.

From ChEMBL document CHEMBL1128265, “Three-dimensional quantitative structure-activity relationship (QSAR) of HIV integrase inhibitors: a comparative molecular field analysis (CoMFA) study” (J Med Chem, 1995) come the findings set out here.

T1 sequence (Q7ZJM1 whole entry): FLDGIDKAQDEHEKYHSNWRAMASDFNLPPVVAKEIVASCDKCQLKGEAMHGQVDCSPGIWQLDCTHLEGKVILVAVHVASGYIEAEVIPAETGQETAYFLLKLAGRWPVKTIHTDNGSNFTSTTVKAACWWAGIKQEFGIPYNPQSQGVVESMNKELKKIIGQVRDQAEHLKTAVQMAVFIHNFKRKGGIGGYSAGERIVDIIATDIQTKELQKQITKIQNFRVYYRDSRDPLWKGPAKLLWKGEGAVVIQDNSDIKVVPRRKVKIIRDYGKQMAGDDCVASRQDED

Consider `O=c1c(OC2COC(O)C(O)C2O)c(-c2ccc(O)c(O)c2)oc2cc(O)cc(O)c12` (centres undefined), for which the values for the IC50 in test [1] and in test [2] were 66.3 µM and 25.1 µM, respectively.
For `O=c1c(O)c(-c2ccc(O)cc2)oc2cc(O)cc(O)c12` [KAEMPFEROL] the same measures were 97.8 µM and 64.7 µM.
For `COc1c(O)cc2oc(-c3ccc(O)c(O)c3)cc(=O)c2c1O` [EUPAFOLIN], in that order: 94.3 µM and 39.1 µM.
For `CC1OC(O)C(O)C(O)C1Oc1c(-c2ccc(O)c(O)c2)oc2cc(O)cc(O)c2c1=O` (centres undefined) the same measures were 60 µM and 38.5 µM.
Regarding `O=c1c(O)c(-c2ccc(O)cc2O)oc2cc(O)cc(O)c12` [MORIN], the figures for the 50% inhibitory concentration (IC50) in test [1] and in test [2] were 76.5 µM and 31.7 µM, respectively.
For `C[C@@H]1O[C@@H](O)[C@H](O)[C@H](O)[C@H]1Oc1c(-c2cc(O)c(O)c(O)c2)oc2cc(O)cc(O)c2c1=O`, in that order: 39.6 µM and 10.3 µM.
On to `O=c1c(O)c(-c2ccc(O)c(O)c2)oc2c(O[C@@H]3O[C@@H](O)[C@@H](O)[C@H](O)[C@H]3O)c(O)cc(O)c12`, for which the IC50 in test [1] was 69.7 µM; in test [2], 22.5 µM.
For `O=c1c(O)c(-c2cc(O)c(O)c(O)c2)oc2cc(O)ccc12` [ROBINETIN], in that order: 5.9 µM and 1.6 µM.
For `O=c1c(O)c(-c2ccc(O)c(O)c2)oc2cc(O)ccc12` [FISETIN], in that order: 28.4 µM and 8.5 µM.
As to `O=c1c(O)c(-c2ccc(O)c(O)c2)oc2cc(O)c(O)c(O)c12` [QUERCETAGETIN], the values for the IC50 in test [1] and in test [2] were 0.8 µM and 0.1 µM, respectively.
For `COc1cc(O)c2c(=O)c(O)c(-c3ccc(O)c(O)c3)oc2c1` [RHAMNETIN], in that order: 61.6 µM and 28.7 µM.
For `O=c1cc(-c2ccc(O)c(O)c2)oc2cc(O)cc(O)c12` [LUTEOLIN] the same measures were 32.9 µM and 25 µM.

What is called IC50 is the point on the concentration scale where inhibition reaches its midpoint. High values mean a need for much substance, low ones inhibition by little substance.
